# Source: US8106055B2, “Substituted amide compounds” (Gruenenthal GmbH, priority 2007, dated 2012)
# Molecular target: T1, human μ opiate receptor (Homo sapiens, UniProt P35372)
# T1 construct: purchased PerkinElmer Life Sciences, Zaventem, Belgium RB-HOM; host or cells: CHO-K1 cells (membrane preparation)
# Test: Affinity for the human μ opiate receptor ([3H]-naloxone displacement, CHO-K1 receptor membrane preparation, SPA)
# Type: binding
# Conditions: test concentration of 1 μM; read-out: μ (binding on the μ opioid receptor, % inhibition)
# Method in brief: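 Displacement of 1 nmol/l [3H]-naloxone measured by SPA counting after 90 min at room temperature, using human μ receptor CHO-K1 membrane preparation in Tris-HCl buffer with 0.06% BSA. Test substances at 1 μmol/l give % inhibition; dilution series yield IC50, then Ki (Cheng-Prusoff); non-specific binding with 100 μmol/l naloxone.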
# T1 sequence (P35372 whole entry): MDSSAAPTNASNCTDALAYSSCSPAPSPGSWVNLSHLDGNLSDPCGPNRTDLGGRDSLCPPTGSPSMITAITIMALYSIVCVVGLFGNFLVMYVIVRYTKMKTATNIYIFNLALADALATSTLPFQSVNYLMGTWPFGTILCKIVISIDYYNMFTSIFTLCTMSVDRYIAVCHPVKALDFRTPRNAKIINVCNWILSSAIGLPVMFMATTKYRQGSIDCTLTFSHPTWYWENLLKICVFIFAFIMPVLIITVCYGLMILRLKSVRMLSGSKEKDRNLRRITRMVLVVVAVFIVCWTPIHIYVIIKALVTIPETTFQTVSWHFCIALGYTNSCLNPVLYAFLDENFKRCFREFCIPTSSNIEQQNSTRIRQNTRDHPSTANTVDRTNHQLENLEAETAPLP
row,Structure (SMILES),inhibition at 1 µM [%]
1,"CN(C)C(c1ccccc1)C1CCC(NC(=O)COCCN(C)S(=O)(=O)c2c(Cl)cc(Cl)cc2Cl)CC1 (stereo not drawn) [Example 34, N-(4-((dimethylamino)(phenyl)methyl)cyclohexyl)-2-(2-(2,4,6-trichloro-N-methylphenylsulfonamido)ethoxy)acetamide]",96
2,"COc1ccc(S(=O)(=O)N2Cc3ccccc3CC2COCC(=O)NCCC2CCC(C(c3cccs3)N(C)C)CC2)cc1 (stereo not drawn) [Example 48, N-(2-(4-((dimethylamino)(thiophen-2-yl)methyl)cyclohexyl)ethyl)-2-((2-(4-methoxyphenylsulfonyl)-1,2,3,4-tetrahydroisoquinolin-3-yl)methoxy)acetamide]",96
3,"COc1cc(C)c(S(=O)(=O)N(C)CCOCC(=O)NCCC2CCC(C(c3cccs3)N(C)C)CC2)c(C)c1C (stereo not drawn) [Example 52, N-(2-(4-((dimethylamino)(thiophen-2-yl)methyl)cyclohexyl)ethyl)-2-(2-(4-methoxy-N,2,3,6-tetramethylphenylsulfonamido)ethoxy)acetamide]",95
4,"CN(C)C(c1cccs1)C1CCC(CNC(=O)COCCN(C)S(=O)(=O)c2ccc(OC(F)(F)F)cc2)CC1 (stereo not drawn) [Example 93, N-((4-((dimethylamino)(thiophen-2-yl)methyl)cyclohexyl)methyl)-2-(2-(N-methyl-4-(trifluoromethoxy)phenylsulfonamido)ethoxy)acetamide]",95
5,"Cc1cc(C)c(S(=O)(=O)N2CCC(OCC(=O)NCCC3CCC(C(c4cccs4)N(C)C)CC3)C2)c(C)c1 (stereo not drawn) [Example 71, N-(2-(4-((dimethylamino)(thiophen-2-yl)methyl)cyclohexyl)ethyl)-2-(1-(mesitylsulfonyl)pyrrolidin-3-yloxy)acetamide]",94
6,"COc1cc(C)c(S(=O)(=O)N2CCC(CCOCC(=O)NC3CCC(C(c4cccs4)N(C)C)CC3)CC2)c(C)c1C (stereo not drawn) [Example 5, N-(4-((dimethylamino)(thiophen-2-yl)methyl)cyclohexyl)-2-(2-(1-(4-methoxy-2,3,6-trimethylphenylsulfonyl)piperidin-4-yl)ethoxy)acetamide]",99
7,"CN(C)C(c1ccccc1)C1CCC(CNC(=O)COC2CCN(S(=O)(=O)c3ccc(Cl)cc3)C2)CC1 (stereo not drawn) [Example 81, 2-(1-(4-chlorophenylsulfonyl)pyrrolidin-3-yloxy)-N-((4-((dimethylamino)(phenyl)methyl)cyclohexyl)methyl)acetamide]",91
8,"CN(C)C(c1cccs1)C1CCC(CCNC(=O)COCCN(C)S(=O)(=O)c2ccc(F)cc2)CC1 (stereo not drawn) [Example 85, N-(2-(4-((dimethylamino)(thiophen-2-yl)methyl)cyclohexyl)ethyl)-2-(2-(4-fluoro-N-methylphenylsulfonamido)ethoxy)acetamide]",92
9,"COc1cc(C)c(S(=O)(=O)N2CCC(OCC(=O)NCC3CCC(C(c4cccs4)N(C)C)CC3)C2)c(C)c1C (stereo not drawn) [Example 58, N-((4-((dimethylamino)(thiophen-2-yl)methyl)cyclohexyl)methyl)-2-(1-(4-methoxy-2,3,6-trimethylphenylsulfonyl)pyrrolidin-3-yloxy)acetamide]",95
10,"CN(C)C(c1cccc(F)c1)C1CCC(CNC(=O)COCCN(C)S(=O)(=O)c2c(Cl)cccc2Cl)CC1 (stereo not drawn) [Example 72, 2-(2-(2,6-dichloro-N-methylphenylsulfonamido)ethoxy)-N-((4-((dimethylamino)(3-fluorophenyl)methyl)cyclohexyl)methyl)acetamide]",92
11,"COc1ccc(S(=O)(=O)N2CCCCC2COCC(=O)NCC2CCC(C(c3cccs3)N(C)C)CC2)c(OC)c1 (stereo not drawn) [Example 49, 2-((1-(2,4-dimethoxyphenylsulfonyl)piperidin-2-yl)methoxy)-N-((4-((dimethylamino)(thiophen-2-yl)methyl)cyclohexyl)methyl)acetamide]",96
12,"COc1cc(C)c(S(=O)(=O)N(C)CCOCC(=O)NCC2CCC(C(c3cccs3)N(C)C)CC2)c(C)c1C (stereo not drawn) [Example 35, N-((4-((dimethylamino)(thiophen-2-yl)methyl)cyclohexyl)methyl)-2-(2-(4-methoxy-N,2,3,6-tetramethylphenylsulfonamido)ethoxy)acetamide]",96
13,"CN(C)C(c1cccs1)C1CCC(CNC(=O)COC2CCN(S(=O)(=O)c3ccccc3)C2)CC1 (stereo not drawn) [Example 36, N-((4-((dimethylamino)(thiophen-2-yl)methyl)cyclohexyl)methyl)-2-(1-(phenylsulfonyl)pyrrolidin-3-yloxy)acetamide]",96
14,"COc1cc(C)c(S(=O)(=O)N2CCC(OCC(=O)NCC3CCC(C(c4ccccc4)N(C)C)CC3)C2)c(C)c1C (stereo not drawn) [Example 44, N-((4-((dimethylamino)(phenyl)methyl)cyclohexyl)methyl)-2-(1-(4-methoxy-2,3,6-trimethylphenylsulfonyl)pyrrolidin-3-yloxy)acetamide]",96
15,"CN(C)C(c1cccc(F)c1)C1CCC(CCNC(=O)COCCN(C)S(=O)(=O)c2c(Cl)cccc2Cl)CC1 (stereo not drawn) [Example 41, 2-(2-(2,6-dichloro-N-methylphenylsulfonamido)ethoxy)-N-(2-(4-((dimethylamino)(3-fluorophenyl)methyl)cyclohexyl)ethyl)acetamide]",96
16,"CN(C)C(c1ccccc1)C1CCC(CNC(=O)COCCN(C)S(=O)(=O)c2cccc(C(F)(F)F)c2)CC1 (stereo not drawn) [Example 91, N-((4-((dimethylamino)(phenyl)methyl)cyclohexyl)methyl)-2-(2-(N-methyl-3-(trifluoromethyl)phenylsulfonamido)ethoxy)acetamide]",91
17,"CN(C)C(c1cccc(F)c1)C1CCC(CNC(=O)COCCN(C)S(=O)(=O)c2ccc(Cl)cc2Cl)CC1 (stereo not drawn) [Example 70, 2-(2-(2,4-dichloro-N-methylphenylsulfonamido)ethoxy)-N-((4-((dimethylamino)(3-fluorophenyl)methyl)cyclohexyl)methyl)acetamide]",91
18,"COc1ccc(S(=O)(=O)N2CCCCC2CCOCC(=O)NCC2CCC(C(c3ccccc3)N(C)C)CC2)cc1 (stereo not drawn) [Example 89, N-((4-((dimethylamino)(phenyl)methyl)cyclohexyl)methyl)-2-(2-(1-(4-methoxyphenylsulfonyl)piperidin-2-yl)ethoxy)acetamide]",93
19,"COc1cc(C)c(S(=O)(=O)N2CCCC(OCC(=O)NCC3CCC(C(c4cccs4)N(C)C)CC3)C2)c(C)c1C (stereo not drawn) [Example 60, N-((4-((dimethylamino)(thiophen-2-yl)methyl)cyclohexyl)methyl)-2-(1-(4-methoxy-2,3,6-trimethylphenylsulfonyl)piperidin-3-yloxy)acetamide]",95
20,"COc1ccc(S(=O)(=O)N2CCC(OCC(=O)NCCC3CCC(C(c4cccs4)N(C)C)CC3)C2)cc1OC (stereo not drawn) [Example 94, 2-(1-(3,4-dimethoxyphenylsulfonyl)pyrrolidin-3-yloxy)-N-(2-(4-((dimethylamino)(thiophen-2-yl)methyl)cyclohexyl)ethyl)acetamide]",93
21,"CN(C)C(c1cccs1)C1CCC(CCNC(=O)COCCN(C)S(=O)(=O)c2ccc(Cl)cc2)CC1 (stereo not drawn) [Example 37, 2-(2-(4-chloro-N-methylphenylsulfonamido)ethoxy)-N-(2-(4-((dimethylamino)(thiophen-2-yl)methyl)cyclohexyl)ethyl)acetamide]",96
